According to patent publication US6590140B1, “Metal-regulated transporters and uses therefor” (Trustees of Dartmouth College, priority 1996, dated 2003):

Test system: wild type (DY1457) cells
Assay: Zinc-limited growth, wild type yeast
Assay type: cell-based, Saccharomyces cerevisiae
Settings: LZM, 16 hours
Method: Strains used were DY1457 (MATα ade6 can1 his3 leu2 trp1 ura3) and ZHY1 (MaTα ade6 can1 his3 leu2 trp1 ura3 zrt1:: LEU2). Yeast were grown in standard culture media (SD, YPD) (Eide, D., Davis-Kaplan S., Jordan, I., Sipe, D., and Kaplan, J. (199: 2) J. Biol. Chem. 267, 20774-20781) supplemented with necessary auxotrophic requirements and either 2% glucose or 2% galactose. A zinc-limiting medium (LZM) was prepared in the same manner as LIM (Eide and Guarenete (1992) J. Gen. Microbiol. 138:347-354) except that […]. Cell number in liquid cultures was determined by measuring the optical density of cell suspensions at 600 nm (A600) and converting to cell number with a standard curve.
Strains used were DY1457 (MATα ade6 can1 his3 leu2 trp1 ura3), ZHY1 (AMTα ade6 can1 his3 leu2 trp1 ura3 zrt1::LEU2), ZHY2 (MATα ade6 can1 his3 leu2 trp1 ura3 zrt2::HIS3), and ZHY3 (MATα ade6 can1 his3 leu2 trp1 ura3 zrt1::LEU2 zrt2::HIS3). […] The concentrations of free (i.e. unchelated) zinc were calculated using MAXCHELATOR software (Chris Patton, Stanford University). Cell number in liquid cultures was determined by measuring the absorbance of cell suspensions at 600 nm (OD600) and converting to cell number with a standard curve. […]

[Zn+2] [zinc]
calculated free zinc [Zn]F sufficient for maximum growth yield: ~6 pM | total zinc sufficient for maximum number of cell divisions: 10 µM
